# Laboratory results: patent publication US20250312469A1 (CANGET BIOTEKPHARMA, priority 2024, published 2025)
# Legend:
# [1] = system: pancreatic cancer PDX14244 or PDX17624 tumors; test: Western blots of pancreatic cancer PDX tumors after oral treatment; assay type: in vivo, SCID mice; conditions: 5 mg/kg oral; day 1-3
# Protocol: The collected tumor tissues were then homogenized with untrasound and analyzed using the corresponding antibodies for DDX5, Agrin, YAP1, p-FAK, FAK, Integrin and Actin via Western blots. Actin expression is the internal control of total protein loading.
# For frozen prostate cancer tissue specimens and their adjacent non-tumor tissues (if any) obtained from Roswell Park pathology network, 30-50 mg of each tissue in a 1.5 Eppendorf tube containing 500 μL of 2×SDS lysis buffer containing Tris pH 6.8+4% SDS+10% Glycerol were homogenized through ultrasound treatment for 10-15 second per time with 3-6 times until tumor tissue was lysed. After all tissues were processed, 1.5 mL tubes were centrifuged at 13,000 rom in a microcentrifuge for 1-2 min and then the supernatant in each tube was transferred into a new 1.5 mL tube for protein concentration measurement (refer to the section of “Studies with Human patient tumor specimens” for more information). […] Proteins of interest were detected using Western Lightning ECL-Plus (Perkin Elmer, Waltham, MA) and visualized by various times (3-120 seconds) of exposure. Actin, tubulin and/or GAPDH were detected as the internal control to normalize total protein loading for each sample.
# [2] = target: P-gp (Homo sapiens, UniProt P08183)
# [3] = system: Panc-1, BxPC-3 and MiaPaca-2 cells; test: Cell monolayer wound healing test; assay type: cell-based, human
# Protocol: Representative cell migration wound healing images were taken at zero hour and wound healing for 48-72 hours.
# [4] = in vivo; conditions: SCID, mouse, po
# [5] = system: p53, Mdm2, AR, AR-Vs, c-Myc, MdmX; test: Western blot/RT-PCR of p53, Mdm2, AR, AR-Vs, c-Myc, MdmX in PCa cells; assay type: cell-based, human
# [6] = system: CYP3A4 mRNA; conditions: human, hepatocytes
# From the text: (2) CYP positive inducers (Table 58a) and Williams' Medium E (WME) were purchased from Sigma-Aldrich (St. Louis, MO, USA). Dulbecco's phosphate-buffered saline (DPBS, pH 7.4) was purchased from Invitrogen (Carlsbad, CA, USA). Hepatocyte culture medium (serum-free) for CYP induction was purchased from XenoTech (catalog #K2300, Lenexa, KS, USA). The CellTiter 96 AQueous ONE Solution Cell Proliferation Assay was obtained from Promega (Madison, WI, USA). All other chemicals and reagents were of analytical grade or higher. (3) Fresh human hepatocytes (Table 58b) seeded at ˜0.15 million cells/well in 48-well plates (˜0.75 million cells/mL) were purchased from Thermo Fisher Scientific (Grand Island, NY, USA) and BioreclamationIVT (Baltimore, MD, USA).
# Vehicle controls were treated in parallel with hepatocyte culture medium. […] (2) After the CYP induction treatment, the cells were used for a cell viability assay. […] The absorbance of formazan, which is proportional to the number of viable cells, was measured spectrophotometrically using the CellTiter 96 AQueous ONE Solution Cell Proliferation Assay. […] The concentration of RNA was determined using a Qubit Fluorometer with a Qubit RNA HS assay kit (Invitrogen). cDNA was synthesized from up to 1 μg of the total RNA harvested from the cells using a QuantiTect RT kit (Qiagen). […]
# [7] = PK after single i.v. dose in tumor bearing mice
# Sequence of P-gp (P08183 whole entry): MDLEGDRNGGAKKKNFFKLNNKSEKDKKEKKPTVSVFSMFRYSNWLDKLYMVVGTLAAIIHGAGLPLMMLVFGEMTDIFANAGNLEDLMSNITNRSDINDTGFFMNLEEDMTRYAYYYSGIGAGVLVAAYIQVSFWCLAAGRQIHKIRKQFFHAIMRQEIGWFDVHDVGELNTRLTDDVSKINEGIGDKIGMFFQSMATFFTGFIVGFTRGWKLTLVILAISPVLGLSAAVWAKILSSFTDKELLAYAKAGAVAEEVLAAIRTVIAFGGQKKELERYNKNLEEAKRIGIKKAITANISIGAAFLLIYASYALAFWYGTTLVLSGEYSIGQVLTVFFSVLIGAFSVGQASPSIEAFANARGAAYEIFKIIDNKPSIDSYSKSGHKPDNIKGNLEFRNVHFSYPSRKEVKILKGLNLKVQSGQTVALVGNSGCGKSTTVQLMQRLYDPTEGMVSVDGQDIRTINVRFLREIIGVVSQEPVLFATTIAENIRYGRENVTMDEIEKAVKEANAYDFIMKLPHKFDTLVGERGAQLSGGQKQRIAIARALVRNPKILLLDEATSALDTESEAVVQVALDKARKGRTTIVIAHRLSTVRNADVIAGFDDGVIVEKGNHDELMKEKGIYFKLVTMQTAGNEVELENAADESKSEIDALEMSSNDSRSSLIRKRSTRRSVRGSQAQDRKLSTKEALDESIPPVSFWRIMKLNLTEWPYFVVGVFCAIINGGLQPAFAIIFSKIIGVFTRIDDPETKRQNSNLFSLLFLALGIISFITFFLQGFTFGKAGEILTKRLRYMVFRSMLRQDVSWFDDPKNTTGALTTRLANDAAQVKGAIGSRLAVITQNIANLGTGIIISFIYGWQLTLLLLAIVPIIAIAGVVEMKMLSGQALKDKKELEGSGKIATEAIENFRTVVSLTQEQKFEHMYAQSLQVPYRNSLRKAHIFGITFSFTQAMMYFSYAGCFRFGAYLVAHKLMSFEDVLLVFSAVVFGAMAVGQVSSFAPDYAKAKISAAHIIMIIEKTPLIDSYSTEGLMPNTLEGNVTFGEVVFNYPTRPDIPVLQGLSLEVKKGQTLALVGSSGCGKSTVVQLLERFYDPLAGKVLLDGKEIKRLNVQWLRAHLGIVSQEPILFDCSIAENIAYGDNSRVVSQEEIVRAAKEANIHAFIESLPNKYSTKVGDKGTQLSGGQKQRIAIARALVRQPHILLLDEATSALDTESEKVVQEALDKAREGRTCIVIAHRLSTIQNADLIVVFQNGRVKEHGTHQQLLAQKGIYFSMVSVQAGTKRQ
smiles,measurement,setting,value
CCC1(O)C(=O)OCc2c1cc1n(c2=O)Cc2cc3cc4c(cc3nc2-1)OCO4 (centres unmarked) [FL118],"DDX5, Agrin, YAP1, p-FAK, Integrin in PDX tumors",[1],more profound decrease
same,inhibition of P-gp transport of digoxin,[2]; 1.0 μM FL118,does not inhibit digoxin acting as a BCRP substrate
same,P-gp Inhibition Potential Classification,"[2]; Caco-2, digoxin as substrate, 1.0 μM FL118 or 1.0 μM Valspodar","Negative (without inhibitor, and reduced by <50 with inhibitor: Negative)"
same,cell migration wound healing,[3],exhibited cell migration wound healing defect
same,MTD at 4 weekly doses,[4],~10 mg/kg
same,AR mRNA,[5],decrease AR mRNA levels
same,"expression of p53, Mdm2, AR, AR-Vs, MdmX, c-Myc",[5],"induces the expression of p53 (p21 increase is a hallmark of p53 activation) and Mdm2 but inhibits AR, AR-Vs, MdmX, and c-Myc"
same,minor induction of CYP3A4,[6],5-8%
same,minor induction of CYP3A4 mRNA,[6],FL118 induces a minor induction (5-8%) of CYP3A4
same,Vz,[7]; FaDu tumor,33052 g/kg
same,Vz,[7]; SW620 tumor,30742 g/kg
